Measured values: ChEMBL document CHEMBL5233262, “Anti-inflammatory activity of naturally occuring diarylheptanoids - A review” (Bioorg Med Chem, 2021)
Values after ≈ are worked out from the molar mass of the structure shown. Residues, ends and D or L forms follow the SMILES beside them. *: point of attachment. Cbz = O=C(OCc1ccccc1)*

What was measured:
RAW264.7 [1] = assay: Antiinflammatory activity in mouse RAW264.7 cells assessed as inhibition of LPS-induced NO production for 24 hrs by Griess assay; type: functional, cell-based; settings: RAW264.7, 24 h
J774.1 [2] = assay: Antiinflammatory activity in mouse J774.1 cells assessed as inhibition of LPS-induced NO production incubated for 48 hrs by Griess reagent based analysis; type: functional, cell-based
Zingiber officinale = assay: Inhibition of prostaglandin biosynthesis in ginger; type: functional, organism-based
Mus musculus = assay: Antiinflammatory activity in ICR mouse model of TPA-induced ear edema assessed as inhibition of ear inflammation at 1 mg,TOP for 30 mins followed by TPA addition and measured after 6 hrs; type: functional; settings: time 390 min, 6.5 h
[3] = Antioxidant activity assessed as ABTS radical scavenging activity measured after 6 mins; type: functional
RAW264.7 [4] = assay: Antiinflammatory activity in mouse RAW264.7 cells assessed as inhibition of LPS-induced NO production preincubated for 1 hrs followed by LPS stimulation and measured after 24 hrs by Griess reagent based spectrophotometrical method; type: functional, cell-based
[5] = Antiinflammatory activity in mouse N11 cells assessed as inhibition of LPS-induced NO production preincubated for 1 hrs followed by LPS stimulation and measured after 24 hrs by Griess method; type: functional, cell-based
[6] = Antiinflammatory activity in mouse N11 cells assessed as inhibition of LPS-induced TNFalpha level preincubated for 1 hrs followed by LPS stimulation and measured after 24 hrs by ELISA; type: functional, cell-based
RAW264.7 [7] = assay: Antiinflammatory activity in mouse RAW264.7 cells assessed as inhibition of LPS-induced NO production preincubated for 0.5 hrs followed by LPS stimulation and measured after 24 hrs by Griess reagent based analysis; type: functional, cell-based
RAW264.7 [8] = assay: Antiinflammatory activity in mouse RAW264.7 cells assessed as inhibition of LPS-induced NO production incubated for 18 hrs by Griess method; type: functional, cell-based; settings: RAW264.7, 18 h
[9] = Inhibition of COX in bovine seminal vesicle assessed as reduction in PGE2 production using arachidonic acid as substrate; type: tissue-based, Bos taurus
RAW264.7 [10] = assay: Antiinflammatory activity in mouse RAW264.7 cells assessed as inhibition of LPS-induced NO production preincubated for 1 hrs followed by LPS stimulation and measured after 24 hrs by Griess method; type: functional, cell-based
RAW264.7 [11] = assay: Antiinflammatory activity in mouse RAW264.7 cells assessed as inhibition of LPS-induced TNFalpha level preincubated for 1 hrs followed by LPS stimulation and measured after 24 hrs by ELISA; type: functional, cell-based
J774.1 [12] = assay: Antiinflammatory activity in mouse J774.1 cells assessed as inhibition of LPS-induced NO production at 100 microg/ml; type: functional
J774.1 [13] = assay: Cytotoxicity in mouse J774.1 cells assessed as reduction in cell viability at 100 microg/ml; type: toxicity, cell-based; settings: at 100 µg/mL
RAW264.7 [14] = assay: Antiinflammatory activity in mouse RAW264.7 cells assessed as inhibition of LPS-induced NO production at 30 uM preincubated for 0.5 hrs followed by LPS stimulation and measured after 24 hrs by Griess reagent based analysis; type: functional; settings: time 24.5 hrs
RAW264.7 [15] = assay: Antiinflammatory activity in mouse RAW264.7 cells assessed as inhibition of IFN-gamma and LPS-induced NO production incubated for 24 hrs by Griess assay; type: functional, cell-based; settings: RAW264.7, 24 h
RAW264.7 [16] = assay: Antiinflammatory activity against mouse RAW264.7 cells assessed as inhibition of IFN-gamma and LPS-induced COX2 production preincubated for 2 hrs followed by IFN-gamma and LPS stimulation and measured after 16 hrs by spectrophotometric analysis; type: functional, cell-based

`Oc1ccc(CC[C@H]2C[C@@H](O)C[C@@H](c3ccc(O)c(O)c3)O2)cc1` gave an IC50 (RAW264.7 [1]) of 17.3 µM.
For `COc1cc(O)c([C@H](/C=C/C[C@@H](O)CCc2ccc(O)cc2)c2ccc(O)cc2)c2oc(-c3ccc(O)cc3)cc(=O)c12` (stereo in doubt; 111), the IC50 (J774.1 [2]; j774.1) was 95 µM.
In the case of `COc1cc(CCC(=O)CC(=O)CCc2ccccc2)ccc1O`, the IC50 (Zingiber officinale) is reported as 4.4 µM.
`OC[C@@]1(O)CO[C@@H](OC[C@H]2O[C@@H](O[C@@H]3CCCCc4ccc(O)c(c4)Oc4ccc(cc4)CC3)[C@H](O)[C@@H](O)[C@@H]2O)[C@@H]1O` gave an ID50 (Mus musculus) of 0.81 mg.
`COc1cc(O)c([C@@H](/C=C/C[C@@H](O)CCc2ccc(O)cc2)c2ccc(O)cc2)c2oc(-c3ccc(O)cc3)cc(=O)c12` (stereo in doubt; 113) gave an IC50 (J774.1 [2]; j774.1) of 83 µM.
`COc1c2cc(c(O)c1OC)CCCC[C@@H](O)CCc1ccc(O)c-2c1` showed an IC50 [3] of 22.3 µM and an IC50 (RAW264.7 [4]) of 7.5 µM.
In the case of `COc1cc(/C=C/C(=O)CC(=O)CCc2ccc(O)c(OC)c2)ccc1O`, the IC50 (J774.1 [2]; Mus musculus, J774.1, 48 h) is reported as 181 µM.
Work on `O=c1cc(-c2ccc(O)cc2)oc2cc(O)cc(O)c12` [APIGENIN] yielded an IC50 [5] of 15 µM and an IC50 [6] of 20 µM.
`O=C(CCc1ccc(O)c(O)c1)C[C@H](CCc1ccc(O)c(O)c1)O[C@H]1OC[C@H](O)[C@@H](O)[C@@H]1OC(=O)c1ccccc1` showed an IC50 (RAW264.7 [7]) of 15.4 µM.
With `Oc1ccc(CCCC[C@H](O)CCc2ccc(O)cc2)cc1` the IC50 (RAW264.7 [8]) was > 25 µM.
`NC1=NN(c2cccc(C(F)(F)F)c2)CC1` [BW-755C] showed an IC50 [9] of 32 µM.
Compound `COc1ccc(C/C=C/CCCCc2ccc(O)c(O)c2)cc1` has an IC50 (RAW264.7 [10]) of 25.1 µM, an IC50 [5] of 41.3 µM and an IC50 (RAW264.7 [11]) of 15.9 µM. The IC50 [6] was 23.3 µM.
Work on `COc1ccc(C/C=C/CCCCc2ccc(OC)c(OC)c2)cc1` yielded an IC50 (RAW264.7 [10]) of 28.3 µM, an IC50 [5] of 12.7 µM and an IC50 (RAW264.7 [11]) of 5.3 µM. It also gave an IC50 [6] of 4.3 µM.
Compound `O=C(CCc1ccc(O)c(O)c1)C[C@H](CCc1ccc(O)c(O)c1)O[C@H]1OC[C@H](O)[C@@H](O)[C@@H]1OC(=O)/C=C/c1ccc(O)cc1` has an IC50 (RAW264.7 [7]) of 22 µM.
Compound `COc1cc(O)c([C@H](/C=C/C[C@H](CCc2ccc(O)cc2)OO)c2ccc(O)cc2)c(O)c1C(=O)/C=C/c1ccc(O)cc1` has an IC50 (J774.1 [2]; Mus musculus, J774.1, 48 h) of 49 µM.
`COc1cc(O)c([C@@H](/C=C/C[C@@H](O)CCc2ccc(O)cc2)c2ccc(O)cc2)c(O)c1C(=O)[C@@H]1[C@H](/C=C/c2ccc(O)cc2)C[C@H](CCc2ccc(O)cc2)O[C@H]1c1ccc(O)cc1` gave an IC50 (J774.1 [2]; Mus musculus, J774.1, 48 h) of 39 µM.
In the case of `COc1cc(O)c([C@H](/C=C/C[C@@H](O)CCc2ccc(O)cc2)c2ccc(O)cc2)c2oc(-c3ccc(O)cc3)cc(=O)c12` (stereo in doubt; 110), the IC50 (J774.1 [2]; Mus musculus, J774.1, 48 h) is reported as 84 µM, the inhibition at 100 µg/mL (J774.1 [12]) is reported as 90% and the Activity (J774.1 [13]) is reported as 85%.
Work on `COc1cc(O)c([C@@H](/C=C/C[C@@H](O)CCc2ccc(O)cc2)c2ccc(O)cc2)c2oc(-c3ccc(O)cc3)cc(=O)c12` (stereo in doubt; 112) yielded an IC50 (J774.1 [2]; Mus musculus, J774.1, 48 h) of 104 µM, an inhibition at 100 µg/mL (J774.1 [12]) of 90% and an Activity (J774.1 [13]) of 85%.
Compound `O=C1CCc2ccc(cc2)Oc2cc(ccc2O)CC[C@@H](O[C@@H]2O[C@H](CO)[C@@H](O)[C@H](O)[C@H]2O)C1` has an ID50 (Mus musculus) of 0.49 mg.
With `OC[C@H]1O[C@@H](O[C@@H]2C[C@@H](CCc3ccc(O)cc3)O[C@@H](c3ccc(O)c(O)c3)C2)[C@H](O)[C@@H](O)[C@@H]1O` the IC50 (RAW264.7 [1]) was 79.9 µM.
With `O=C(CCc1ccc(O)c(O)c1)C[C@H](CCc1ccc(O)c(O)c1)O[C@H]1OC[C@H](O)[C@@H](O)[C@@H]1OC(=O)/C=C/c1ccccc1` the IC50 (RAW264.7 [7]) was 10.5 µM.
For `Oc1ccc(CC[C@@H]2C[C@@H](O)C[C@H](c3ccc(O)c(O)c3)O2)cc1`, the IC50 (RAW264.7 [1]) was 27.9 µM.
`O=C(CCc1ccc(O)c(O)c1)C[C@H](CCc1ccc(O)cc1)O[C@@H]1OC[C@@H](O)[C@H](O)[C@H]1O` gave an IC50 (RAW264.7 [7]) of 8.1 µM.
`Oc1ccc(CC[C@H](O)C[C@H](O)CCc2ccc(O)c(O)c2)cc1` showed an IC50 (RAW264.7 [1]) of 27 µM.
`CC(C)C[C@@H](C=O)NC(=O)[C@H](CC(C)C)NC(=O)[C@H](CC(C)C)NC(=O)OCc1ccccc1` [MG-132] (Cbz-Leu-Leu-Leu-aldehyde) gave an IC50 (RAW264.7 [8]) of 0.1 µM.
`OC[C@H]1O[C@@H](O[C@H](CCCCc2ccc(O)c(O)c2)CCc2ccc(O)cc2)[C@H](O)[C@@H](O)[C@@H]1O` gave an inhibition at 30 µM (RAW264.7 [14]) of 11%.
With `OC[C@@]1(O)CO[C@@H](OC[C@H]2O[C@@H](O[C@H](CCCCc3ccc(O)c(O)c3)CCc3ccc(O)c(O)c3)[C@H](O)[C@@H](O)[C@@H]2O)[C@@H]1O` the IC50 (RAW264.7 [15]) was 49.4 µg/mL (≈ 78.8 µM) and the IC50 (RAW264.7 [16]) was 34.2 µg/mL (≈ 54.6 µM).
